Assay results published in PMC10924921, “Mi-2β promotes immune evasion in melanoma by activating EZH2 methylation” (Nature Communications, 2024).

Assays:
Assay in all cases: biochemical
Design in all cases: KINOMEscan active-site competition binding panel (468 kinase assays), per cent of control at 1000 nM
Settings in all cases: KINOMEscan per cent of control (binding competition); read-out: Percent Control
AMPK-alpha1 = target: T1, AMPK-alpha1 (Homo sapiens, UniProt Q13131)
T1 construct: gene PRKAA1
Description: (§1) Figure S7 / Percent Control

CASK = CASK (Homo sapiens, UniProt O14936)
Description: as §1

CDK4 = CDK4 (Homo sapiens, UniProt P11802)
Description: as §1

EGFR(L858R,T790M) = EGFR(L858R,T790M) (Homo sapiens, UniProt P00533, L858R/T790M)
Description: as §1

ERBB2 = ERBB2 (Homo sapiens, UniProt P04626)
Description: as §1

ERBB4 = ERBB4 (Homo sapiens, UniProt Q15303)
Description: as §1

FES = FES (Homo sapiens, UniProt P07332)
Description: as §1

FLT3(ITD,D835V) = FLT3(ITD,D835V) (Homo sapiens, UniProt P36888, D835V/ITD)
Description: as §1

GRK4 = GRK4 (Homo sapiens, UniProt P32298)
Description: as §1

HUNK = HUNK (Homo sapiens, UniProt P57058)
Description: as §1

INSRR = INSRR (Homo sapiens, UniProt P14616)
Description: as §1

LATS1 = LATS1 (Homo sapiens, UniProt O95835)
Description: as §1

LOK = target: T2, LOK (Homo sapiens, UniProt O94804)
T2 construct: gene STK10
Description: as §1

MAP3K15 = MAP3K15 (Homo sapiens, UniProt Q6ZN16)
Description: as §1

MET(Y1235D) = MET(Y1235D) (Homo sapiens, UniProt P08581, Y1235D)
Description: as §1

MYLK2 = MYLK2 (Homo sapiens, UniProt Q9H1R3)
Description: as §1

NEK10 = NEK10 (Homo sapiens, UniProt Q6ZWH5)
Description: as §1

PKAC-alpha = target: T3, PKAC-alpha (Homo sapiens, UniProt P17612)
T3 construct: gene PRKACA
Description: as §1

PLK3 = PLK3 (Homo sapiens, UniProt Q9H4B4)
Description: as §1

RIOK2 = RIOK2 (Homo sapiens, UniProt Q9BVS4)
Description: as §1

[1] = target: T4, RPS6KA4(Kin.Dom.1-N-terminal) (Homo sapiens, UniProt O75676)
T4 construct: Kin.Dom.1-N-terminal
Description: as §1

TAOK2 = TAOK2 (Homo sapiens, UniProt Q9UL54)
Description: as §1

YSK1 = target: T5, YSK1 (Homo sapiens, UniProt O00506)
T5 construct: gene STK25
Description: as §1

p38-beta = target: T6, p38-beta (Homo sapiens, UniProt Q15759)
T6 construct: gene MAPK11
Description: as §1

T2 sequence (O94804 whole entry): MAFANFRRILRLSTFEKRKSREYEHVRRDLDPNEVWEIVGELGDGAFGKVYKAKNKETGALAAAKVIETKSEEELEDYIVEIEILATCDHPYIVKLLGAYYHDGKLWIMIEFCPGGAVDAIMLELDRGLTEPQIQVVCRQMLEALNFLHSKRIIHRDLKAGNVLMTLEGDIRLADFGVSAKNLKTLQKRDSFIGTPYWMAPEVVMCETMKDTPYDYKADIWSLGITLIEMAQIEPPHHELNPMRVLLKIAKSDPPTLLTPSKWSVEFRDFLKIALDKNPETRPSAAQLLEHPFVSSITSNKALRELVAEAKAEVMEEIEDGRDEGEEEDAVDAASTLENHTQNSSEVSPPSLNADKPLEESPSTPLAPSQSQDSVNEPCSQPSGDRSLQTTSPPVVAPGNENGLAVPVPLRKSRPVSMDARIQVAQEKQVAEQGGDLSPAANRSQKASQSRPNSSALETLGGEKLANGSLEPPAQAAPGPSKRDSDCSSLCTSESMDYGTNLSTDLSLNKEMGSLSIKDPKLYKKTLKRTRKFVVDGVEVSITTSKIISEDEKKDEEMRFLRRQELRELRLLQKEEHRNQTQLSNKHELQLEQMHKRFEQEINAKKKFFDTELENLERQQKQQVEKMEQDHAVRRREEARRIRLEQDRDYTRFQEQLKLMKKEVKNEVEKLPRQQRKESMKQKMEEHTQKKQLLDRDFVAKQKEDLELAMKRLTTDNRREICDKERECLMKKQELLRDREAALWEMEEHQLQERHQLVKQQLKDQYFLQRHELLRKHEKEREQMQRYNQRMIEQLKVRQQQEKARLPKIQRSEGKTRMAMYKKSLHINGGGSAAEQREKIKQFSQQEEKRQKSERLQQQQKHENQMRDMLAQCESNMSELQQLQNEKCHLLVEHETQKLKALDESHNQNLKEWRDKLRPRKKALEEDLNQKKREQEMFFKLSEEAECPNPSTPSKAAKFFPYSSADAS
Chain of RIOK2 (Q9BVS4 whole entry): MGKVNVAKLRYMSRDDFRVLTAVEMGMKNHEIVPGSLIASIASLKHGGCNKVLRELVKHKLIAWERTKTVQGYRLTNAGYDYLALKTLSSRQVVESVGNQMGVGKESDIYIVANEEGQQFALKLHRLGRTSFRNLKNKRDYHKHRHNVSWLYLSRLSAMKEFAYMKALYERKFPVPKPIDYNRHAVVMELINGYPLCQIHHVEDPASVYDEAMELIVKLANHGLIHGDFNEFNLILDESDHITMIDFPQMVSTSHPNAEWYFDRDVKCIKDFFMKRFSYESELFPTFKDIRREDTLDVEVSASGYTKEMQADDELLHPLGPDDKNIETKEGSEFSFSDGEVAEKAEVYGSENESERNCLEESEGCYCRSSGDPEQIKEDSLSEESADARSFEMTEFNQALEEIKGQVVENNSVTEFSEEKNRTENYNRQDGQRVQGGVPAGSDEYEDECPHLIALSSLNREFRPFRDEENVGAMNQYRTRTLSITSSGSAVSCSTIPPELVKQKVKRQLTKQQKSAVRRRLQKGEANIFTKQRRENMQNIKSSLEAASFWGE
Chain of CASK (O14936 whole entry): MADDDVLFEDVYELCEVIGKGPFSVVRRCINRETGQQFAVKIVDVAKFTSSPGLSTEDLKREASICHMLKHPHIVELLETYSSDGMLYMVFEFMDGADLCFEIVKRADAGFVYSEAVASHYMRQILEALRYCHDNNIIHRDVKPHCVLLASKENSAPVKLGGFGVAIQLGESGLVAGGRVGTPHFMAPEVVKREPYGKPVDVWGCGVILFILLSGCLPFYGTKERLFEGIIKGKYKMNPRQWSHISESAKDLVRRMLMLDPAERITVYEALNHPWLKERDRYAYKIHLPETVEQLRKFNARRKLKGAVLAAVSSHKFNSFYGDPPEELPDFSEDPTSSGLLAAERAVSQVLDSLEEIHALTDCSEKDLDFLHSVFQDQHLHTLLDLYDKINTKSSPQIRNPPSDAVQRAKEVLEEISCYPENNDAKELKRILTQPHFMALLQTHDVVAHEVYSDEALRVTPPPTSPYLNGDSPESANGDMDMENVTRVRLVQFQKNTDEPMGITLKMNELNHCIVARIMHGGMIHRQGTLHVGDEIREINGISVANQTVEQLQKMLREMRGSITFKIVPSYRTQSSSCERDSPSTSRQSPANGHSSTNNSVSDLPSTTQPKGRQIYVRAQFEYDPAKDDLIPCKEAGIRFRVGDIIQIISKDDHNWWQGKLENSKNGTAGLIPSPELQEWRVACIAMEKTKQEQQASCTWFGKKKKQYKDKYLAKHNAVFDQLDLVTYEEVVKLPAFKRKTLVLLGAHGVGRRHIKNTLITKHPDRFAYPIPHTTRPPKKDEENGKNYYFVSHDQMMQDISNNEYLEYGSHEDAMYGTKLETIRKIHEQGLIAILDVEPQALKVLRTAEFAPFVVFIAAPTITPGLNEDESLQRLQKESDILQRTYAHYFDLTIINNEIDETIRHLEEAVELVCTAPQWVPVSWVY
Chain of INSRR (P14616 whole entry): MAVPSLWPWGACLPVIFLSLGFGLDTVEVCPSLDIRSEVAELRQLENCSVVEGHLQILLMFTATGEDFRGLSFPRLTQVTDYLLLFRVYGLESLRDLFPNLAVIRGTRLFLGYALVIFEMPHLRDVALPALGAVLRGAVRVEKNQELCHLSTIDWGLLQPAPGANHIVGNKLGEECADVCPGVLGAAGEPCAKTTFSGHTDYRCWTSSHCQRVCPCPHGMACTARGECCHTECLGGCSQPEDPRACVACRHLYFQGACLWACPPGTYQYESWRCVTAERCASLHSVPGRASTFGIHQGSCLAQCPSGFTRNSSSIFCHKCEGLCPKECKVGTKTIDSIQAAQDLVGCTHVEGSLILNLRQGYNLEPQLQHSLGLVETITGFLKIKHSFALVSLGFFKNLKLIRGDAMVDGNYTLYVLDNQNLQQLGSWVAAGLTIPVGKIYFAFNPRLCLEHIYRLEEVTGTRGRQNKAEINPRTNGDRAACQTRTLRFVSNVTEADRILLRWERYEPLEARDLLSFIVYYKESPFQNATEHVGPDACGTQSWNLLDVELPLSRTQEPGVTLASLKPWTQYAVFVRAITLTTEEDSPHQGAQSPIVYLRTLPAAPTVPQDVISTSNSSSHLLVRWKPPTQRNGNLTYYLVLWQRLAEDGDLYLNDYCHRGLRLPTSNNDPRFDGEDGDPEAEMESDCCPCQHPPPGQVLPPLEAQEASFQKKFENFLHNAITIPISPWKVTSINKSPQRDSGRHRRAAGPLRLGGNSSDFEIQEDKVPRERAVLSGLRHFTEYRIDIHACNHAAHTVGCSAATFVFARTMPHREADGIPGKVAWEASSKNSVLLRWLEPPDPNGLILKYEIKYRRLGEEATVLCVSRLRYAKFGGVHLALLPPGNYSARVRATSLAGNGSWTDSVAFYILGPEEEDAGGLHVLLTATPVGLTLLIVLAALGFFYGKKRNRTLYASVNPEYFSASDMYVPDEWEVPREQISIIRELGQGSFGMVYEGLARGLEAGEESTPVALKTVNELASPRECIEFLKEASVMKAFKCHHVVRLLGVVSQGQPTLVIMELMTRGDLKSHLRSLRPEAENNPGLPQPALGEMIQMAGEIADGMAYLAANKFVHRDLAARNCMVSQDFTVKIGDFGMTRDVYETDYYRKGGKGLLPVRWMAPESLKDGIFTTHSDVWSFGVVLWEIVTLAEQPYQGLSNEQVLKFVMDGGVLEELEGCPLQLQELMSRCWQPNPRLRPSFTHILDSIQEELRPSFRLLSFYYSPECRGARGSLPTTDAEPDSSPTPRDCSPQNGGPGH
Chain of ERBB4 (Q15303 whole entry): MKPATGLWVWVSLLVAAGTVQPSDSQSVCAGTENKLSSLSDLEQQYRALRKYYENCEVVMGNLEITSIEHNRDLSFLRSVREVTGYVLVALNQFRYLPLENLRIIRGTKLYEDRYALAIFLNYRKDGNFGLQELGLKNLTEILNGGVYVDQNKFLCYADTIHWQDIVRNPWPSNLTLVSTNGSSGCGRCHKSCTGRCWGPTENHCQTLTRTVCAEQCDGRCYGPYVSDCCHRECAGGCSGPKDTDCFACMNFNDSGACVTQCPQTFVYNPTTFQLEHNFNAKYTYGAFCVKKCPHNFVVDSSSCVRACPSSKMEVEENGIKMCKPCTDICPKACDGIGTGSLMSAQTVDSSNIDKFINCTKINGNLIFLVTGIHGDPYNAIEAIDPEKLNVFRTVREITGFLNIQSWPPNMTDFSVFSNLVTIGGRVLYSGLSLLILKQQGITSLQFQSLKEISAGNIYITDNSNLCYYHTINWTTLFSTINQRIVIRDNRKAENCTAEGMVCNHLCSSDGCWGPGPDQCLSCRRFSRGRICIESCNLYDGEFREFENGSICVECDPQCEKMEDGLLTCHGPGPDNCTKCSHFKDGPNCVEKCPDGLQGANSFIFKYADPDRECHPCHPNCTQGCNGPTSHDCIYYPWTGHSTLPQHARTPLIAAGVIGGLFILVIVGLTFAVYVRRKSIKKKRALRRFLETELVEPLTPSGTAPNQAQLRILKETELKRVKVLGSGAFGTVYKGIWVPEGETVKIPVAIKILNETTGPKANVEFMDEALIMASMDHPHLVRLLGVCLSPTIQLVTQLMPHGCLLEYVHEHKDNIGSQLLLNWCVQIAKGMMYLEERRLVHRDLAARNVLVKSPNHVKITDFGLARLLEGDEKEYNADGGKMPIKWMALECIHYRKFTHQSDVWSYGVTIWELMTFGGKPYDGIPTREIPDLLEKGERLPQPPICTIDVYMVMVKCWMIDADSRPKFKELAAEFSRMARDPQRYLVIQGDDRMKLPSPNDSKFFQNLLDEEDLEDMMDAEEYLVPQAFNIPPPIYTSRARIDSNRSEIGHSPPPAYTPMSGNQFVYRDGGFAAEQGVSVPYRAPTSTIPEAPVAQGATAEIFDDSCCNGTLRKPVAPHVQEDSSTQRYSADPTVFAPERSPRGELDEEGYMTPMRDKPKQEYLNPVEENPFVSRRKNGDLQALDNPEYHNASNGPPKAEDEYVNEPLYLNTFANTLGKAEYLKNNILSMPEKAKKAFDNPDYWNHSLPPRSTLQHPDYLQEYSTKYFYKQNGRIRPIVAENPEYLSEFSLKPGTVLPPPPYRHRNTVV

Cn1c(=O)[nH]c2ccc(-c3cccc(C(=O)NC4CCn5ccnc5C4)c3)cc21 (stereo not drawn) [Z36-MP5]
remaining binding at 1 µM (AMPK-alpha1): 92% | remaining binding at 1 µM (CASK): 60% | remaining binding at 1 µM (CDK4): 62% | remaining binding at 1 µM (EGFR(L858R,T790M)): 39% | remaining binding at 1 µM (ERBB2): 100% | remaining binding at 1 µM (ERBB4): 96% | remaining binding at 1 µM (FES): 73% | remaining binding at 1 µM (FLT3(ITD,D835V)): 56% | remaining binding at 1 µM (GRK4): 52% | remaining binding at 1 µM (HUNK): 74% | remaining binding at 1 µM (INSRR): 86% | remaining binding at 1 µM (LATS1): 100% | remaining binding at 1 µM (LOK): 90% | remaining binding at 1 µM (MAP3K15): 52% | remaining binding at 1 µM (MET(Y1235D)): 93% | remaining binding at 1 µM (MYLK2): 96% | remaining binding at 1 µM (NEK10): 50% | remaining binding at 1 µM (PKAC-alpha): 85% | remaining binding at 1 µM (PLK3): 68% | remaining binding at 1 µM (RIOK2): 84% | remaining binding at 1 µM [1]: 90% | remaining binding at 1 µM (TAOK2): 87% | remaining binding at 1 µM (YSK1): 98% | remaining binding at 1 µM (p38-beta): 87%
